Data taken from a melting point compilation (Tetko et al.; mined from patent text by program, amines drawn as free bases though some values may be those of a salt).

Row | melting point [°C] | SMILES
1 | 183 | CCNC(=O)Oc1cccc(NC(=O)C=C(C)OC)c1
2 | 215 to 217 | CC(C)CC(=O)Nc1cccc(-c2ccnc3c(-c4ccc(Cl)c(Cl)c4)cnn23)c1
3 | 79 to 81 | O=C(c1ccccc1)c1noc(CS(=O)c2ccccc2)n1 (stereo not drawn)
4 | 192 to 194 | COc1ccc(-c2nc(OCC#N)c3cc(OC)ccc3c2[N+](=O)[O-])cc1
5 | 79 to 80 | CS(=O)(=O)NCCCNC(=O)c1cccc(-c2cccc3oc(Cc4cccc(C(F)(F)F)c4)cc23)c1
6 | 194 to 196 | CN1C(=O)N(C)C(c2c(C(C)(C)C)cc(O)cc2C(C)(C)C)N(C)C1=O
7 | 55 to 59 | CC(C)N(CC(O)CC(c1ccccc1)c1ccccc1)C(C)C (stereo not drawn)
8 | 110 to 118 | O=C(O)c1cc([N+](=O)[O-])cs1
9 | 160 to 162 | O=C(O)c1ccc(NCC2CCCCCCC2)cc1
10 | 43 | Cc1nnc(O[Si](C)(C)C)nc1O[Si](C)(C)C
11 | 118 to 120 | CCOCc1cccc2[nH]cc(C(COC)C(C(=O)OCC)[N+](=O)[O-])c12 (stereo not drawn)
12 | 142 to 144 | CS(=O)(=O)NC[C@@H]1CN(c2ccc(N3CCC(O)(CN=[N+]=[N-])CC3)c(F)c2)C(=O)O1
13 | 124 | CCOC(=O)c1nn(-c2ccc(Cl)cc2Cl)c(-c2ccc(Cl)cc2)c1C
14 | 45 to 47 | N#Cc1c(Cl)cccc1C(F)(F)F
15 | 195 to 196 | CCOC(=O)c1cnn(-c2ccc(OC)c(C#N)c2)c1N
16 | 250 to 252 | COC(=O)c1ccc2oc3c(c(=O)c2c1)CCC3=Cc1ccccn1
17 | 101 to 105 | COC(=O)c1cc2ccsc2s1
18 | 194 to 196 | NNC(=O)c1ccccc1-c1ccc([N+](=O)[O-])cc1
19 | 74 to 79 | CC(=O)OCC1(c2ccccc2)CCC(=O)CC1
20 | > 300 | CCOC(=O)c1c[nH]c2cc(-c3cc(C)nc(C)c3)c(F)cc2c1=O
21 | 94 to 95 | CCOC(=S)SCCC(=O)N1CCC[C@H]1C(=O)O
22 | 173 to 175 | COC(Cc1c(Br)cc(Br)c(N)c1Br)C(=O)O (stereo not drawn)

Row | melting point [°C] | SMILES
23 | 163 | CN1CCC(OC2c3ccccc3CCn3c(I)cnc32)CC1 (stereo not drawn)
24 | 135 to 136 | C=Cc1c2c(c(C)c(C)c1N1CCN(c3ccc(OC)cc3)CC1)OC(C)(C)C2
25 | 48 | COCCCNc1nc(Cl)cc(Cl)n1
26 | 142 to 143 | Cc1cc(C(=O)c2[nH]c3cc(Cl)ccc3c2N)ccc1Cl
27 | 116 to 118 | CN1C(=O)C2C3C=CC(C3)C2(c2ccc3c(c2)OCO3)C1=O (stereo not drawn)
28 | 163 to 165 | Cc1ccc2c(c1)C(NC(=O)CCCN1CCN(c3ccc(F)cc3)CC1)c1ccccc1CS2(=O)=O (stereo not drawn)
29 | 166 to 168 | CCCc1[nH]c2ccc(OC)cc2c1C=O
30 | 186 to 188 | CC1CC(=O)NN=C1c1ccc(Cl)c([N+](=O)[O-])c1 (stereo not drawn)
31 | 213 to 214 | Cc1ccnc(N2CCN(CCC3Cn4c(-c5ccc(O)cc5)c(C)c5cccc(c54)O3)CC2)c1 (stereo not drawn)
32 | 205 to 207 | CS(=O)(=O)c1ccc(-c2cnn(CC(O)c3ccccc3)c(=O)c2-c2ccc(F)cc2)cc1 (stereo not drawn)
33 | 200 to 202 | CC(=Nc1ccc2c(c1)C(=O)c1ccc(N=C(C)N3CCC(C)CC3)cc1C2=O)N1CCC(C)CC1
34 | 135 to 138 | COC(=O)c1ccccc1-c1nc2cc(C)ccc2o1
35 | 241 to 242 | N#Cc1c(N2CCCCC2)[nH]c2cccnc12
36 | 245 to 248 | C[C@H](NC(=O)c1ccccc1)C(=O)N[C@@H](C)C(=O)Nc1ccccc1
37 | 95 to 96 | CCCC1(C)OC(=O)C(OC(C)C)=C1c1ccc(S(C)(=O)=O)cc1 (stereo not drawn)
38 | 47 to 49 | CCOC(=O)[C@H](Cc1ccc(OS(=O)(=O)C(F)(F)F)cc1)NC(=O)OC(C)(C)C
39 | 189 to 191 | O=c1[nH]c2ccc(S(=O)CCN3CCC(Cc4ccc(Cl)c(Cl)c4)CC3)cc2o1 (stereo not drawn)
40 | 143 | Fc1cccc(Nc2nc(Cl)nc(Cl)n2)c1
41 | 81 to 85 | CCCOc1cc(C)cnc1CCCCNc1ncc(Cc2ccc(C)nc2)c(=O)[nH]1
42 | 133 to 134 | CC(C)(C)OC(=O)NC(Cc1ccccc1F)C(=O)N1CCSC1 (stereo not drawn)
43 | 129 to 131 | CCCc1nc2c(N)ncc(Br)c2n1CCOCCNS(C)(=O)=O
44 | 152 to 154 | CC(Oc1ccc(N(C)c2nc3cc(Cl)ccc3o2)cc1)C(=O)O (stereo not drawn)

Row | melting point [°C] | SMILES
45 | 114 | O=CN1C(=O)c2ccccc2OC1C(Cl)(Cl)Cl (stereo not drawn)
46 | 47 to 48 | O=C1CCCC(=O)C1=C(S)NCc1ccccc1
47 | 181 to 182 | COc1ccc(-c2c(C(C)=O)c(CBr)nc3cc(OC)c(OC)cc23)cc1OC
48 | 116 to 119 | CC(=O)Nc1sc2c(c1C(=O)c1ccccc1)CCCC2
49 | 165 to 166 | Cc1cccc(C)c1-n1cnc(NCc2ccccn2)nc1=O
50 | 210 to 211 | CC1CCC(Nc2ccc(Br)cc2)c2ncc(C(=O)O)c(=O)n21 (single isomer, unassigned; (-))
51 | 126 to 128 | Cc1ccc(-c2cc(C(F)(F)F)nn2-c2ccc(S(N)(=O)=O)c(F)c2)cc1
52 | 127 to 128 | CCOC(=O)c1cc(Cl)cc2c(=O)c(C)c(-c3ccccc3)oc12
53 | 190 to 193 | Clc1c2c(nc3cn[nH]c13)CCCC2
54 | 199 to 201 | O=c1oc(=O)n(-c2ccc(F)cc2)c2ccccc12
55 | 128 to 129 | CCCCCCCCCCc1ccc(C(=O)c2cc(Br)c(C(=O)c3ccc(CCCCCCCCCC)cc3)cc2Br)cc1
56 | 247 to 249 | CC(C)(C)OC(=O)N[C@H]1CCN(c2nc3c(cc2F)c(=O)c(C(=O)O)cn3C2CC2)C1
57 | 195 to 196 | COC(=O)c1ccc(C(=O)Nc2ccc(-n3nc(C(F)(F)F)cc3C(F)(F)F)cc2)cc1
58 | 242 to 244 | CN1CC[C@@H](c2c(O)cc(O)c3c(=O)cc(-c4c(F)cccc4F)oc23)[C@@H]1CO
59 | 113 | Cc1cnc(-c2cc(C(F)(F)F)nn2C)nc1Oc1cc(C(F)(F)F)nn1C
60 | 69.4 to 70.8 | CCCCCc1cnc(-c2ccc(C#N)cc2)nc1
61 | 77 to 78 | CC1=C(Br)C=CC(Cl)(C=NO)C1 (stereo not drawn)
62 | 180 to 182 | Cc1ncc2c(c1-c1nnn[nH]1)COc1ccccc1C2=O
63 | 171 to 172 | COc1ccc(-c2c(Cl)c(CCl)nc3sc4c(c23)CCN(Cc2ccccc2)C4)cc1OC
64 | 170 to 173 | O=C(O)c1ccc(C=C2CCN(C(=O)c3ccc(Cl)cc3)CC2)c(F)c1
65 | 174 to 175 | COCCCn1nnnc1-c1ccc(O)c(Br)c1O
66 | 147 to 151 | Cc1ccc(C(=O)Nc2ccc(CN3CCOCC3)c(C(F)(F)F)c2)cc1Br

Row | SMILES | melting point [°C]
67 | CCNC(=O)ON=C1CCOc2ccc(OC)cc21 | 97 to 98
68 | CN1c2ccc(Cl)cc2C(c2ccccc2)=NCC1CN1CCCCC1 (stereo not drawn) | 143 to 145
69 | CC(CO)NC(=O)c1cnc(N2CCC(N3C(=O)OCc4ccccc43)CC2)c(Cl)c1 (stereo not drawn) | 125 to 128
70 | CN1CCN=C(c2ccccc2)c2cc([N+](=O)[O-])ccc21 | 186 to 187
71 | O=C(NC1N=C(c2ccccc2)c2ccccc2NC1=O)c1ccc2ccccc2c1 (racemic) | 293 to 294
72 | Ic1ccc(CCN2CCOCC2)cc1 | 64 to 67
73 | ClCCN1c2ccc(Cl)cc2C(c2ccsc2)=NCC1CCl (stereo not drawn) | 115 to 116
